Assay results reported in PMC5458519, “Splicing modulators act at the branch point adenosine binding pocket defined by the PHF5A–SF3b complex” (Nature Communications, 2017).

Legend:
HCT116 cells = test: 72 h growth inhibition profiling (CellTiter-Glo cellular viability assay), parental HCT116; type: cell-based; settings: in HCT116
Protocol: (§1) For CellTiter-Glo analysis, 500 cells were seeded in each well of a 384-well plate the day before compound addition. An 11 pt serial dilution was used starting with a top final dosage of 10 μM for 10 additional doses. DMSO percentage was maintained throughout and a DMSO-only control was included. Seventy-two hours post compound addition, CellTiter-Glo reagent was added to the medium, incubated and assayed on EnVision Multilabel Reader (PerkinElmer). The luminescence value from each treatment sample was normalized to the average value of the respective DMSO control. The dosage response curve plots were generated using Graphpad Prism 6 and fit using nonlinear regression analysis and the log(inhibitor) versus response—Variable slope (four parameters). For heatmap summarization of IC50 shifts, IC50 value was extracted from dosage response curves and the fold changes of IC50 values in PHF5A variants expressing lines over that of the WT lines were calculated and plotted using TIBCO Spotfire software. For IC50s greater than the top dosage, the values were arbitrarily set at 10 μM. Unsupervised clustering analysis was performed in TIBCO Spotfire using the following default parameters: Clustering method: UPGMA; Distance measure: Euclidean; Ordering weight: Average value; Normalization: (None); Empty value replacement: Constant value: 0.

[1] = system: HCT116 resistant clones (SF3B1-R1074H, SF3B1-V1078A/I, PHF5A-Y36C); test: 72 h growth inhibition profiling (CellTiter-Glo) of E7107- and herboxidiene-resistant HCT116 clones; type: cell-based; settings: HCT116 clones with SF3B1-R1074H, SF3B1-V1078 or PHF5A-Y36C; 72 h CellTiter-Glo
Protocol: In total, 2.5 million HCT116 cells were seeded in each 10 cm dish and treated with indicated dosages of splicing modulators for 2 weeks. Compounds were refreshed every 4 days. When needed, confluent dishes were split 1:3 and cells were allowed to recover overnight without splicing modulator treatment after re-seeding. At the end of the compound selection period, surviving individual clones were picked and transferred to 12-well plates. Individual resistant clones were further expanded without splicing modulator treatment and one million cells from each clone were pelleted for genomic DNA extraction using the DNeasy Blood & Tissue Kit from Qiagen. WXS libraries were generated by Novogene Corporation using Agilent SureSelect Human All Exon V6 kit and sequenced on Illumina HiSeq platform. 12G raw data were gathered for each sample. WXS reads were then aligned to hg19 by BWA-MEM[40] and somatic mutations were identified with MuTect2 (ref. [41]) through Sentieon pipeline[42] by pairing resistant clone with parental cell lines. As we selected the resistant clones for WXS, the allele frequencies for the mutations which are responsible for the resistance should be high. We focused on non-silent mutations (among the H3 curated spliceosome genes) with allele frequency higher than 0.2.
as §1

[2] = system: splicing of SLC25A19, EIF4A1 and MCL1; test: Taqman gene expression assay (SLC25A19 mRNA, EIF4A1 pre-mRNA, MCL1 isoforms) in PHF5A WT or Y36C HCT116 cells; type: cell-based; settings: for induction of MCL1 ES and IR events: PHF5A WT cells, dose response, 4 h
Protocol: Eight thousand cells of indicated genotypes were seeded in each well of 96-well plate and allowed to settle overnight. On the second day, 11 pt serial dilution (1:4 fold dilution across) of indicated compound with a top dosage of 10 μM final was added to the culturing medium. Four hours post compound addition, culturing medium was decanted and washed once with PBS. PBS was then decanted completely from the plate and Lysis buffer (plus DNase I) from TaqMan Gene Expression Cells-to-CT Kit (Thermo Fisher, cat # AM1729) was added according to the manual. After 5 min incubation at RT on the shaker, stop solution was added to each well and incubated for 2 min. Reverse transcription was set up immediately using the Cells-to-CT Kit and cDNAs were used for quantitative real-time PCR analysis using Viia7 (Thermo Fisher). Each reaction is multiplexed with an FAM-labelled probe targeting specific target gene splicing isoforms and a VIC-labelled probe targeted 18S rRNA as loading control. Therefore, the FAM Ct value in each well was first normalized to the VIC Ct value in the same well before further normalization to the FAM/VIC ratio of DMSO-treated control samples to calculate fold change over DMSO. Graphs were generated using Graphpad Prism 6, n=2. Taqman gene expression probes used in these assays are listed in Supplementary Table 1.

PANC0504 cells = test: Growth inhibition of Panc0504 cells expressing PHF5A WT or Y36C; type: cell-based
Protocol: (§2) Parental HCT116 cells were obtained from ATCC and cultured in RPMI 1,640 medium (Thermo Fisher, GIBCO#11875) supplemented with 10% fetal bovine serum (FBS). Parental Panc0504 cells were obtained from ATCC and cultured in GIBCO RPMI 1,640 medium (Thermo Fisher, GIBCO#11875) supplemented with glucose (to 4.5 g l^−1 final), HEPES (10 mM final), sodium pyruvate (1 mM final), human insulin (10 μg ml^−1 final) and 15% FBS. Cell line authentication was achieved by genetic profiling using polymorphic short tandem repeat (STR) loci (ATCC). All cell lines were free of mycoplasma contamination. […]
(§3) For CellTiter-Glo analysis, 500 cells were seeded in each well of a 384-well plate the day before compound addition. […] Seventy-two hours post compound addition, CellTiter-Glo reagent was added to the medium, incubated and assayed on EnVision Multilabel Reader (PerkinElmer). The luminescence value from each treatment sample was normalized to the average value of the respective DMSO control. […] For heatmap summarization of IC50 shifts, IC50 value was extracted from dosage response curves and the fold changes of IC50 values in PHF5A variants expressing lines over that of the WT lines were calculated and plotted using TIBCO Spotfire software. […]

SF3B1 (R1074H) = system: SF3B1 (R1074H); design: method as in PMID 21981285; settings: single amino acid substitution R1074H in SF3B1; cited from earlier work
[3] = system: global splicing (splice junction usage); test: RNA-seq differential splicing analysis in PHF5A WT or Y36C overexpressing cells; type: cell-based; settings: 100 nM
Protocol: Either PHF5A WT or Y36C mutant-overexpressing cells were treated with either DMSO or E7107 (100 nM and 10 μM) for 6 h in hexaplicate before lysed in TRIzol reagent (Thermo Fisher). After phase separation, the top aqueous phase was further processed using MagMAX-96 Total RNA Isolation Kit (Thermo Fisher, AM1830) for RNA extraction. RNA quality was assessed using Agilent tapestation with RNA screen tape. RNA-seq libraries were prepared by Beijing Genomic Institute (BGI) and sequenced on Illumina Hiseq 4,000 for 6G clean reads per sample. RNA-seq reads were aligned to hg19 by STAR[50] and raw junction counts generated by STAR were used for calculating PSI to quantify splice junction usage relative to all other splice junctions that share the same splice site as described before. Differential PSI were assessed between a pair of sample groups using moderated t-test defined in limma package[52] in Bioconductor. […]
The number of reads which cover the splice junction which excludes a given cassette exon (ES reads) are compared with both the number of spliced reads which share its 3′ splice site yet have an alternative 5′ splice site bordering the cassette exon (exon inclusion reads) and the number of reads which cross the exon–intron boundary at that same 3′ splice site (IR reads). […]

[4] = system: PHF5A variant expressing HCT116 cells; test: 72 h growth inhibition profiling (CellTiter-Glo) of PHF5A WT- or Y36/V37 variant-expressing HCT116 cells; type: cell-based; settings: HCT116, 72 h
Protocol: as §2, §3

Compound | GI50 (HCT116 cells) [nM] | resistance of resistant clones in growth inhibition profiling [1] | induction of MCL1 ES and IR events [2] | GI50 (HCT116 cells; Homo sapiens, HCT-116) [nM] | effect of SF3B1 R1074H on splicing-modulating and antiproliferative effects (SF3B1 (R1074H)) | also measured
CO[C@]1(C)C[C@@]2(CO2)[C@H](O)[C@@H](/C=C/C(C)=C/C[C@@H]2O[C@H](C)[C@H](NC(=O)/C=C\[C@H](C)OC(C)=O)C[C@@H]2C)O1 [spliceostatin A] | 0.76 | SF3B1-R1074H mutation also conferred better resistance | – | – | – | –
CNC(=O)OC(C)C=CC(=O)NC1CCC(CC=C(C)C=CC2CC3(CO3)CC(C)(C)O2)CC1 (stereo not drawn) [sudemycin D6] | 149 | SF3B1-R1074H mutation also conferred better resistance | IR events were not observed | – | – | –
COC(C(C)O)C(C)C1OC1(C)CC(C)C=CC=C(C)C1OC(CC(=O)O)CCC1C (stereo not drawn) [herboxidiene] | – | PHF5A-Y36C mutation rendered more resistance | – | 7.6 | – | –
CC[C@H](O)[C@@H](C)[C@H]1O[C@@H]1C[C@@](C)(O)/C=C/C=C(\C)[C@H]1OC(=O)C[C@H](O)CC[C@@](C)(O)[C@@H](OC(=O)N2CCN(C3CCCCCC3)CC2)/C=C/[C@@H]1C [E7107] | – | SF3B1-R1074H mutation conferred the most robust resistance | ‘earlier' induction of MCL1 ES events than IR events at lower doses | 1.5 | almost completely abolished | resistance phenotype on PHF5A Y36C over-expression (PANC0504 cells): partial resistant phenotype; MCL1-S production (ES events) in PHF5A-Y36C cells compared to WT ([2]; increasing dosage): enhanced to a higher level; dominant MCL1 splicing event (Sashimi plot of RNA-seq) ([3]; PHF5A WT cells): IR was the dominant event; dominant MCL1 splicing event (Sashimi plot of RNA-seq) ([3]; PHF5A Y36C cells): mainly ES events were observed
CC(C)C[C@H](NC(=O)[C@H](Cc1ccccc1)NC(=O)c1cnccn1)B(O)O [bortezomib, Bortezomib] | – | did not affect the cell lines' sensitivity | – | – | – | resistance in PHF5A Y36 variant expressing cells [4]: resistance only occurred to the treatment with splicing modulators but not bortezomib
pladienolide B | – | – | – | – | almost completely abolished | –
